In one assay the test system is skin. Nature of the assay: Cooling effect of the formulation examples as perceived by the test persons. Type of assay: in vivo, human. An excerpt:
Provided the corresponding formulations also contained trans-4-tert. butylcyclohexanol, the cooling effect was even further enhanced compared to formulations without this compound.

Assay [1] concerns skin (both cheeks) of test persons. Nature of the assay: In-vivo half-side cheek test of cooling intensity of O/W cream samples (20 panellists, scale 1-10, 30 minutes). The arrangement: species or system human. The following applies: FIG. 1. On the procedure:
The aim of the human in vivo studies was to test the effect of the cooling mixture according to the invention in O/W formulations with regard to their cooling intensity. What was to be examined here was whether the cooling effect/cooling intensity of 5-methyl-2-(propane-2-yl)cyclohexyl-N-ethyloxamate will be enhanced in the combination of active substances according to the invention. Each individual test was carried out using 20 panellists under standardized conditions in a test institute. To this end, each test person spread two defined quantities of cream samples onto both cheeks at the same time. […] Upon application of the samples, the test persons evaluated the cooling intensities on a scale of 1-10 within a period of 30 minutes (1=weak; 10=strong). The studies were carried out as double blind studies, therefore the test institute received the formulations in an encoded form. In order to ensure test standardization, the following conditions were selected: • Controlled ventilation and temperature conditions in the room of the test persons • Use of a standardized test protocol • Detailed explanation of the test protocol • Samples were given to the test persons in uniform, clear containers • Samples were labeled with a three-digit code • A sample amount of 0.3 g of cream was applied onto each cheek • Samples were covered with a lid in order to avoid drying out of the samples • Test persons were instructed not to use any makeup on the day of the test and not to use any cosmetic products at least two hours before the test • The test persons evaluated the cooling effect of the two products on a scale of 1-10 (1=weak, 10=strong) at 32 identical points in time
The data obtained during the studies was examined with regard to any significant differences between the two samples. To this end, the data was initially examined for standard normal distribution. Provided the data met the criteria of a standard normal distribution, a pairwise t test was carried out. […] Where no normal distribution of the values was found, significance was determined via a non-parametric Wilcoxon. […]

Here are results for three compounds from patent US9029415B2, “Cooling mixtures with an enhanced cooling effect of 5-methyl-2-(propane-2-yl)cyclohexyl-N-ethyloxamate” (Symrise AG, priority 2010, dated 2015).

As for `CCCCCCCCC(O)CO` (centres unmarked) [1,2-decanediol], the “enhancement of cooling effect when 1,2-pentanediol is replaced” value in the assay on skin (1,2-pentanediol replaced with 1,2-decanediol in an amount of one fifth of the pentanediol) was “applies analogously”.

Turning to `CCCCC(O)CO` (centres unmarked) [1,2-hexanediol], in the assay on skin (1,2-pentanediol in the formulations replaced with 1,2-hexanediol at a ratio of 5:3), the “enhancement of cooling effect when 1,2-pentanediol is replaced” value is reported as “comparable effects are achieved”.

On to `CCNC(=O)C(=O)O[C@@H]1C[C@H](C)CC[C@H]1C(C)C` [MEO, (1R,2S,5R)-5-methyl-2-(propane-2-yl)cyclohexyl N ethyl oxamate], for which the “cooling effect (cooling intensity, scale 1-10)” value in assay [1] (O/W emulsion with 1.0 % MEO, 0.3 g cream per cheek, 20 panellists) is on record as “marked cooling effect”. For the same compound, the “onset of the cooling effect” value in assay [1] (after application of the formulation onto the cheek) is listed as “immediately upon application”. Moreover, the “duration of the cooling effect” value in assay [1] (evaluation period 30 minutes) is “more than 30 minutes”.
